Source: US8193189B2, “Quinoxaline derivatives as tyrosine kinase activity inhibitors” (Novartis AG, priority 2007, dated 2012)
pIC50: −log10 of the molar value.

Experiments:
GST-JAK1(866-1154) = target: T1, GST-JAK1(866-1154) (Homo sapiens, UniProt P23458); assay: EPK JAK-family kinases profiling assay (Caliper mobility shift), JAK1; type: biochemical; conditions: ATP 40 μM, 50 nM kinase
T1 construct: GST-JAK1(866-1154); made in house
Source text: (§1) All four kinases of the JAK-family kinases were used as purified recombinant GST-fusion proteins, containing the active kinase domains. GST-JAK1(866-1154), GST-JAK3(811-1124), and GST-TYK2(888-1187) were expressed and purified by affinity chromatography at the EPK biology unit. GST-JAK2(808-1132) was purchased from Invitrogen (Carlsbad, USA, #4288).
(§2) The kinase assays were based on the Caliper mobility shift assay using the LabChip 3000 systems. This technology is similar to capillary electrophoresis and uses charge driven separation of substrate and product in a microfluidic chip.
(§3) All kinase reactions were performed in 384 well microtiter plates in a total reaction volume of 18 μl. The assay plates were prepared with 0.1 μl per well of test compound in the appropriate test concentration, as described under the section “preparation of compound dilutions”. The reactions were started by combining 9 μl of substrate mix (consisting of peptide and ATP) with 9 μl of kinase dilution. The reactions were incubated for 60 minutes at 30° C. and stopped by adding 70 μl of stop buffer (100 mM Hepes, 5% DMSO, 0.1% Coating reagent, 10 mM EDTA, 0.015% Brij 35).
(§4) Fluorescently labeled synthetic peptides were used as substrates in all reactions. […] Specific assay conditions are described in Table 1:
(§5) The terminated reactions were transferred to the Caliper LabChip 3000 reader and the turnover of each reaction was measured by determining the substrate/product ratio.
(§6) Test compounds were dissolved in DMSO (10 mM) and transferred into 1.4 mL flat bottom or V-shaped Matrix tubes carrying a unique 2D matrix chip by individual compound hubs. The numbers of these chips were distinctively linked to the individual compound identification numbers. The stock solutions were stored at −20° C. if not used immediately. For the test procedure the vials were defrosted and identified by a scanner whereby a working sheet was generated that guided the subsequent working steps.
(§7) Compound dilutions were made in 96 well plates. This format enabled the assay of maximally 40 individual test compounds at 8 concentrations (single points) including 4 reference compounds. The dilution protocol included the production of pre-dilution plates, master plates and assay plates:
(§8) Pre-dilution plates: 96 polypropylene well plates were used as pre-dilution plates. A total of 4 pre-dilution plates were prepared including 10 test compounds each on the plate positions A1-A10, one standard compound at A11 and one DMSO control at A12. All dilution steps were done on a HamiltonSTAR robot.
(§9) Master plates: 100 μL of individual compound dilutions including standard compound and controls of the 4 “pre-dilution plates” were transferred into a 384 “master plate” including the following concentrations 1′820, 564, 182, 54.6, 18.2, 5.46, 1.82 and 0.546 μM, respectively in 90% of DMSO.
(§10) Assay plates: Identical assay plates were then prepared by pipetting 100 nL each of compound dilutions of the master plates into 384-well “assay plates”. […] The preparation of the master plates were handled by the Matrix PlateMate Plus robot and replication of assay plates by the HummingBird robot.

GST-JAK2(808-1132) = target: T2, GST-JAK2(808-1132) (Homo sapiens, UniProt O60674); assay: EPK JAK-family kinases profiling assay (Caliper mobility shift), JAK2; type: biochemical; conditions: ATP 20 μM, 1.8 nM kinase
T2 construct: GST-JAK2(808-1132); purchased Invitrogen (Carlsbad, USA) #4288
Source text: as §1, §2, §3, §4, §5, §6, §7, §8, §9, §10

GST-JAK3(811-1124) = target: T3, GST-JAK3(811-1124) (Homo sapiens, UniProt P52333); assay: EPK JAK-family kinases profiling assay (Caliper mobility shift), JAK3; type: biochemical; conditions: ATP 80 μM, 6 nM kinase
T3 construct: GST-JAK3(811-1124); made in house
Source text: as §1, §2, §3, §4, §5, §6, §7, §8, §9, §10

[1] = tested on: JAK/STAT pathway (JAK1/JAK2-dependent nuclear translocation of STAT1-GFP); assay: Inhibition of the JAK/STAT pathway: IFN-γ stimulated nuclear translocation of STAT1-GFP in HT1080 fibrosarcoma cells; type: cell-based; conditions: Homo sapiens, HT-1080; HT1080 STAT1-GFP cells, 100 ng/ml IFN-γ 2 hours, compound added 30 min before; read-out: STAT1translo IC50
Source text: The medium-throughput (96-well format), robust and reproducible cellular assay can be routinely used to assess the functional activation of Janus Kinases (JAKs), based on the nuclear translocation of their substrate, Signal Transducer and Activator of Transcription (STAT). Nuclear translocation can be monitored in HT1080 fibrosarcoma cells stably transfected with STAT1 fused to Green Fluorescence Protein (GFP). Stimulation with interferon-γ (IFN-γ) results in JAK1/JAK2-dependent nuclear translocation of STAT1-GFP that can be quantified using the Cellomics Cyto/NucTrans software package. This assay may be used to provide an assessment of the nuclear-cytoplasmic differential (NCD) of GFP-STAT1 using Hoechst dye to define the boundaries of the nucleus.
Compounds can be dissolved in DMSO to a final stock concentration of 10 mM and stored as aliquots at 4° C. Compounds may be pre-diluted in 100% DMSO at 10 mM, 3 mM 1 mM, 0.3 mM, 0.1 mM, 0.03 mM, 0.01 mM and 0.003 mM. Subsequently, compounds may be diluted in medium and added in 50 μl to the cells. The final compound concentrations tested may be 10 μM, 3 μM 1 μM, 0.3 μM, 0.1 μM, 0.03 μM, 0.01 μM and 0.003 μM and the final DMSO concentration can be 0.1%.
The plates may then be washed once in PBS, and 200 μl PBS finally added per well. The plates, being finally covered with a black adhesive, may be either read directly or stored at 4° C. for later imaging. Where appropriate, the compounds may be added 30 min before stimulation with IFN-γ.
The plates can be read on a Cellomics® ArrayscanII automated fluorescence microscope plate reader equipped with a Mercury-Xenon white light illumination source and a Zeiss Axiovert inverted microscope, using the XF100 dichroic/emission filter cube and matching excitation filters, 10× magnification, and a 0.3 numerical aperture objective. Image acquisition and analysis can be performed using a customized protocol based on the ‘NuclearTranslocation’ Bioapplication (for details, see Appendices). For each well, multiple images (fields) can be acquired until a minimum of 1000 cells are counted using two 2 channels: Channel 1 (Hoechst)=focus+nuclear mask, Channel 2 (GFP)=signal quantification in mask areas as outlined below.
Nuclei may be first identified based on the Hoechst staining and a mask generated for each nucleus that then serves as a template to generate a circle (eroded inwards by 1 pixel) and a 3 pixel-wide collar-like ring (off-set outwards by 1 pixel), in which the nuclear and cytoplasmic intensity of GFP, respectively, are quantified in the corresponding channel. High content analysis yields numerous measurements per cell and the GPF intensity differential between the nuclear and the cytoplasmic masks may be chosen as a measure of sub-cellular GFP-STAT1 relocation. The resulting values may be averaged for all cells in the well to return a single measurement plus standard deviation.

T2 sequence (O60674 808-1132): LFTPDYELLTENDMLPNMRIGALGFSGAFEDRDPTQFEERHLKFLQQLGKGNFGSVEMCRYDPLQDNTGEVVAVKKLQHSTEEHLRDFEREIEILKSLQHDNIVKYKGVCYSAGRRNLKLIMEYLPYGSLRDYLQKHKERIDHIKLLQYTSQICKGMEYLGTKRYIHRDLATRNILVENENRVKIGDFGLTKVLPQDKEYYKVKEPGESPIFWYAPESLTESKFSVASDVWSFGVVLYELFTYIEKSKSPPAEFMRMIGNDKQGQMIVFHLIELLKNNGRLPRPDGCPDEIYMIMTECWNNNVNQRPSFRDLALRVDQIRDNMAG
T3 sequence (P52333 811-1124): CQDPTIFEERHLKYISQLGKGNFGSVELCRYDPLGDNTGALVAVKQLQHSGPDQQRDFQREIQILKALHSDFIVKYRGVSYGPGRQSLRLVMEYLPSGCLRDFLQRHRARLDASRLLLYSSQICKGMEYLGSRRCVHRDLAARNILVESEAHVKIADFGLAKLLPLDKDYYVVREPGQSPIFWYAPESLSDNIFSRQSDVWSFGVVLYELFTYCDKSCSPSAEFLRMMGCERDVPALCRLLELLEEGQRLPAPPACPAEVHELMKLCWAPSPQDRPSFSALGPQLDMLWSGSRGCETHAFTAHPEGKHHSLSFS
T1 sequence (P23458 866-1154): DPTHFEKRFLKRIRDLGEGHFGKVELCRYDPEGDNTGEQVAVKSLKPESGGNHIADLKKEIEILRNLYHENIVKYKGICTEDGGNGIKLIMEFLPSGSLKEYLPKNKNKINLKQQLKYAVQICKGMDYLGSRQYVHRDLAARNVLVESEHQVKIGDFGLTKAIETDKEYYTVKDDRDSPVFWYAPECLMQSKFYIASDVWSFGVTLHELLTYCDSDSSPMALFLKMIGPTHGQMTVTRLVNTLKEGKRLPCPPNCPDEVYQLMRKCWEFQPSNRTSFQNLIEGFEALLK

| Compound | pIC50 (GST-JAK1(866-1154)) | pIC50 (GST-JAK2(808-1132)) | pIC50 (GST-JAK3(811-1124)) | pIC50 [1] |
| --- | --- | --- | --- | --- |
| Cc1cc(-c2cnc3cccc(-c4ccc(CN5CCS(=O)(=O)CC5)cc4)c3n2)ccc1C(=O)N1CCN(C)CC1 [Example 40, (4-{8-[4-(1,1-Dioxido-thiomorpholin-4-ylmethyl)-phenyl]-quinoxalin-2-yl}-2-methyl-phenyl)-(4-methyl-piperazin-1-yl)-methanone] | 7.11 | 8.14 | 6.20 | 6.80 |
| Cc1cc(-c2cnc3cccc(-c4ccc(CC(=O)N5CCOCC5)cc4)c3n2)ccc1C(=O)N1CCN(C)CC1 [Example 41, 2-(4-{3-[3-Methyl-4-(4-methyl-piperazine-1-carbonyl)-phenyl]-quinoxalin-5-yl}-phenyl)-1-morpholin-4-yl-ethanone] | 6.89 | 8.20 | 6.19 | 6.46 |
| O=C(Cc1ccc(-c2cccc3ncc(-c4ccc(N5CCOCC5)cc4)nc23)cc1)N1CCOCC1 [Example 45, 1-Morpholin-4-yl-2-{4-[3-(4-morpholin-4-yl-phenyl)-quinoxalin-5-yl]-phenyl}-ethanone] | 6.72 | 7.52 | 5.66 | 5.62 |
| Cc1cc(-c2cccc3ncc(-c4ccc(N5CCOCC5)cc4)nc23)ccc1C(=O)N1CCOCC1 [Example 46, {2-Methyl-4-[3-(4-morpholin-4-yl-phenyl)-quinoxalin-5-yl]-phenyl}-morpholin-4-yl-methanone] | 6.96 | 7.70 | 5.80 | 5.55 |
| COCCOc1ccc(-c2cnc3cccc(-c4ccc(CN5CCS(=O)(=O)CC5)c(F)c4)c3n2)cc1OC [Example 48, 8-[4-(1,1-Dioxido-thiomorpholin-4-ylmethyl)-3-fluoro-phenyl]-2-[3-methoxy-4-(2-methoxy-ethoxy)-phenyl]-quinoxaline] | 8.00 | > 8.52 | 7.11 | 6.82 |
| COCCOc1ccc(-c2cnc3cccc(-c4ccc(CC(=O)N5CCOCC5)c(F)c4)c3n2)cc1OC [Example 49, 2-(2-Fluoro-4-{3-[3-methoxy-4-(2-methoxy-ethoxy)-phenyl]-quinoxalin-5-yl}-phenyl)-1-morpholin-4-yl-ethanone] | 6.59 | 7.42 | 5.36 | 5.91 |
| Cc1cc(-c2cnc3cccc(-c4ccc(CN5CCS(=O)(=O)CC5)c(F)c4)c3n2)ccc1C(=O)N(C)C [Example 54, 4-{8-[4-(1,1-Dioxido-thiomorpholin-4-ylmethyl)-3-fluoro-phenyl]-quinoxalin-2-yl}-2,N,N-trimethyl-benzamide] | 7.77 | > 8.52 | 7.19 | 6.85 |
| Cc1cc(-c2cnc3cccc(-c4ccc(CN5CCOCC5)c(C(F)(F)F)c4)c3n2)ccc1C(=O)N(C)C [Example 55, 2,N,N-Trimethyl-4-[8-(4-morpholin-4-ylmethyl-3-trifluoromethyl-phenyl)-quinoxalin-2-yl]-benzamide] | 5.77 | 7.05 | 5.38 | 5.50 |
| Cc1cc(-c2cnc3cccc(-c4ccc(CN5CCOCC5)c(F)c4)c3n2)ccc1C(=O)N(C)C [Example 56, 4-[8-(3-Fluoro-4-morpholin-4-ylmethyl-phenyl)-quinoxalin-2-yl]-2,N,N-trimethyl-benzamide] | 6.82 | 7.92 | 6.24 | 6.33 |
| Cc1cc(-c2cccc3ncc(-c4ccc(C(=O)N5CCOCC5)c(C)c4)nc23)ccc1CN1CCS(=O)(=O)CC1 [Example 57, (4-{8-[4-(1,1-Dioxido-thiomorpholin-4-ylmethyl)-3-methyl-phenyl]-quinoxalin-2-yl}-2-methyl-phenyl)-morpholin-4-yl-methanone] | 7.10 | > 8.52 | 6.77 | 6.79 |
| Cc1cc(-c2cnc3cccc(-c4ccc(CN5CCOCC5)c(F)c4)c3n2)ccc1C(=O)N1CCOCC1 [Example 58, {4-[8-(3-Fluoro-4-morpholin-4-ylmethyl-phenyl)-quinoxalin-2-yl]-2-methyl-phenyl}-morpholin-4-yl-methanone] | 7.05 | 7.96 | 6.49 | 6.66 |
| Cc1cc(-c2cnc3cccc(-c4cc(F)c(CN5CCOCC5)c(F)c4)c3n2)ccc1C(=O)N1CCOCC1 [Example 59, {4-[8-(3,5-Difluoro-4-morpholin-4-ylmethyl-phenyl)-quinoxalin-2-yl]-2-methyl-phenyl}-morpholin-4-yl-methanone] | 6.28 | 7.70 | 5.71 | 6.20 |
| Cc1cc(-c2cnc3cccc(-c4ccc(CN5CCS(=O)(=O)CC5)c(Cl)c4)c3n2)ccc1C(=O)N1CCOCC1 [Example 61, (4-{8-[3-Chloro-4-(1,1-dioxido-thiomorpholin-4-ylmethyl)-phenyl]-quinoxalin-2-yl}-2-methyl-phenyl)-morpholin-4-yl-methanone] | 6.78 | 7.82 | 5.85 | 6.63 |
| Cc1cc(-c2cnc3cccc(-c4ccc(CN5CCS(=O)(=O)CC5)c(F)c4)c3n2)ccc1C(=O)N1CCOCC1 [Example 62, (4-{8-[4-(1,1-Dioxido-thiomorpholin-4-ylmethyl)-3-fluoro-phenyl]-quinoxalin-2-yl}-2-methyl-phenyl)-morpholin-4-yl-methanone] | 7.35 | 8.24 | 6.48 | 7.09 |
| Cc1cc(-c2cnc3cccc(-c4ccc(CN5CCOCC5)c(F)c4)c3n2)ccc1C(=O)N1CCCC1 [Example 65, {4-[8-(3-Fluoro-4-morpholin-4-ylmethyl-phenyl)-quinoxalin-2-yl]-2-methyl-phenyl}-pyrrolidin-1-yl-methanone] | 6.62 | 7.81 | 6.07 | 5.66 |
